The results in this text go back to PubChem BioAssay AID651630 (Sanford-Burnham Center for Chemical Genomics, 2012).

SMILES strings stand for the structures. Activity calls are given as the source filed them.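 How the source made its calls: active means lipid-stain IC50 at or below a set limit, with nuclear-stain toxicity IC50 at least five times higher; inactive means the rest.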

One assay concerns DAPI. Description: triacylglycerol accumulation inhibitor potency, dose response, cell-based, panel, Nile Red and DAPI fluorescence, H9c2 (AID 651630).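 Further: cells exposed to compound overnight before fixation and staining.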 As to conditions: H9c2 cells, DAPI nuclear fluorescence (cytotoxicity counter-readout), oleic acid.
The subject of a further assay is TAG. The assay is described as above. As to conditions: H9c2 cells, Nile Red TAG fluorescence, oleic acid.

What is called IC50 is the midpoint of a concentration-inhibition curve. Consider `C[C@@]12C(=O)Nc3ccc(Br)cc3C(=O)N1[C@H]1c3cc(Br)ccc3OC[C@@H]1[C@@H]2c1ccccc1`, for which the IC50 cytotoxicity (DAPI nuclear signal decrease) with DAPI (run 1) and with DAPI (run 2) was above 25 µM in each case. Further, the IC50 is 4.98 µM in the assay with TAG (mean of runs), 4.48 µM with TAG (run 1) and 5.47 µM in the assay on TAG (run 2).
Regarding `CCCCCc1cc(=O)oc2c(C(CCN3CCCC3)c3cc(OC)c(OC)c(OC)c3)c(OC)cc(OC)c12` (configuration not stated), the IC50 cytotoxicity (DAPI nuclear signal decrease) in the assay with DAPI (mean of runs) is 20.2 µM (inactive); with DAPI (run 1), 20.1 µM; in the assay on DAPI (run 2), 20.2 µM. The figures for the IC50 with TAG (run 1) and in the assay on TAG (run 2) were above 25 µM and 17.4 µM, respectively.
Take `CC1(C(=O)NCc2ccco2)Cc2c(-c3ccc4c(c3)OCO4)ccnc2O1` (configuration not stated): the IC50 cytotoxicity (DAPI nuclear signal decrease) with DAPI (mean of runs) is > 25 µM (inactive); with DAPI (run 1) it was above 25 µM; in the assay on DAPI (run 2), above 25 µM. The IC50 in the assay with TAG (run 1) is 17.1 µM; with TAG (run 2), above 25 µM.
`O=c1cc(N2CCN(c3cccc(Cl)c3)CC2)[nH]c(=O)n1C1CCCCC1`: the IC50 cytotoxicity (DAPI nuclear signal decrease) in the assay on DAPI (run 1) is 18.2 µM; in the assay with DAPI (run 2), above 25 µM. Also, the IC50 in the assay on TAG (mean of runs) was 3.47 µM; with TAG (run 1), 5.5 µM; in the assay on TAG (run 2), 1.44 µM.
As for `COc1ccc2cc3cc(C(=O)NCCc4ccc(OC)c(OC)c4)oc3nc2c1`, the IC50 cytotoxicity (DAPI nuclear signal decrease) with DAPI (mean of runs) was > 25 µM (inactive); in the assay with DAPI (run 1) it was above 25 µM; in the assay on DAPI (run 2) it was above 25 µM. For the same compound, the IC50 in the assay with TAG (mean of runs) was > 25 µM (inactive); in the assay with TAG (run 1), above 25 µM; with TAG (run 2), above 25 µM.
Regarding `CC(=O)O[C@H]1C[C@@]2(C)[C@@H](C[C@@H](O)[C@H]3[C@@]4(C)CC[C@@H](O)[C@@H](C)[C@@H]4CC[C@@]32C)/C1=C(\CCC=C(C)C)C(=O)O`, the IC50 cytotoxicity (DAPI nuclear signal decrease) in the assay with DAPI (mean of runs) is > 25 µM (inactive); in the assay with DAPI (run 1), above 25 µM; in the assay on DAPI (run 2) it was above 25 µM. Further, the figures for the IC50 in the assay with TAG (mean of runs), in the assay with TAG (run 1) and in the assay on TAG (run 2) were 18.5 µM (inactive), 15 µM and 22 µM, respectively.
With `CC(C)C(C)(C#N)NC(=O)CSc1nc2scc(-c3ccco3)c2c(=O)n1-c1ccccc1` (configuration not stated), the results for the IC50 cytotoxicity (DAPI nuclear signal decrease) with DAPI (mean of runs), in the assay on DAPI (run 1) and in the assay on DAPI (run 2) were > 25 µM (inactive), above 25 µM and above 25 µM, respectively. Also, the IC50 is 10.5 µM in the assay with TAG (mean of runs), 11.4 µM with TAG (run 1) and 9.69 µM in the assay on TAG (run 2).
On to `Cc1ccc(CNC(=O)c2ccc(N3CCC4(CC3)CC(c3ccccc3)=NO4)c(NC(=O)c3ccc(Br)cc3)c2)cc1`, for which the IC50 cytotoxicity (DAPI nuclear signal decrease) with DAPI (run 1) and in the assay with DAPI (run 2) was above 25 µM in each case. The figures for the IC50 in the assay on TAG (mean of runs), with TAG (run 1) and with TAG (run 2) were 4.43 µM, 3.68 µM and 5.18 µM, respectively.
`Cc1ccc(/C=N/NC(=O)Cc2c[nH]c3ccccc23)c(C)c1`: the values for the IC50 cytotoxicity (DAPI nuclear signal decrease) in the assay on DAPI (mean of runs), in the assay with DAPI (run 1) and with DAPI (run 2) were > 25 µM (inactive), above 25 µM and above 25 µM, respectively. For the same compound, the IC50 was 19.8 µM in the assay with TAG (run 1) and above 25 µM in the assay with TAG (run 2).
Consider `C[C@H](O)[C@@H]1CN2CCc3c([nH]c4ccc(-c5ccc6c(c5)OCO6)cc34)[C@@H]2C[C@@H]1N(C)C(=O)Nc1ccc(F)cc1`, for which the IC50 cytotoxicity (DAPI nuclear signal decrease) in the assay with DAPI (mean of runs) is > 25 µM (inactive); in the assay with DAPI (run 1), above 25 µM; in the assay on DAPI (run 2) it was above 25 µM. Also, the figures for the IC50 with TAG (mean of runs), in the assay on TAG (run 1) and in the assay with TAG (run 2) were 11 µM, 7.28 µM and 14.7 µM, respectively.
For `COc1ccc(C(C(=O)NC(C)(C)C)N(Cc2cccs2)C(=O)CCC(=O)Nc2cc(C)on2)cc1` (configuration not stated), the values for the IC50 cytotoxicity (DAPI nuclear signal decrease) in the assay with DAPI (mean of runs), in the assay on DAPI (run 1) and with DAPI (run 2) were > 25 µM (inactive), above 25 µM and above 25 µM, respectively. Further, the results for the IC50 in the assay on TAG (mean of runs), in the assay with TAG (run 1) and with TAG (run 2) were 13.6 µM, 12.7 µM and 14.4 µM, respectively.
Regarding `O=C(Nc1cccc(-c2csc(Nc3cccc(C(F)(F)F)c3)n2)c1)c1cc([N+](=O)[O-])cc(C(F)(F)F)c1`, the IC50 cytotoxicity (DAPI nuclear signal decrease) in the assay with DAPI (mean of runs) is > 25 µM (inactive); in the assay with DAPI (run 1) it was above 25 µM; in the assay on DAPI (run 2), above 25 µM. The IC50 with TAG (mean of runs) is > 25 µM (inactive); in the assay on TAG (run 1), above 25 µM; in the assay with TAG (run 2), above 25 µM.
Regarding `COc1cc(C#Cc2c(-c3cncn3C)n(C)c3ccc(-c4ccc(OC)c(OC)c4)cc23)cc(OC)c1`, the IC50 cytotoxicity (DAPI nuclear signal decrease) in the assay on DAPI (mean of runs) is > 25 µM (inactive); with DAPI (run 1) it was above 25 µM; with DAPI (run 2), above 25 µM. For the same compound, the results for the IC50 in the assay on TAG (mean of runs), in the assay on TAG (run 1) and with TAG (run 2) were 8.76 µM, 8.47 µM and 9.05 µM, respectively.
Turning to `COc1ccc(C(=O)Nc2ccc(Cl)cc2C(=O)NCc2ccco2)cc1`, the IC50 cytotoxicity (DAPI nuclear signal decrease) in the assay on DAPI (mean of runs) was > 25 µM (inactive); in the assay with DAPI (run 1) it was above 25 µM; in the assay with DAPI (run 2), above 25 µM. The values for the IC50 in the assay on TAG (mean of runs), in the assay on TAG (run 1) and in the assay with TAG (run 2) were 16.9 µM (inactive), 16.2 µM and 17.7 µM, respectively.
Turning to `CN1CCN(c2ccc([N+](=O)[O-])cc2C(=O)c2ccc(Cl)cc2)CC1`, the IC50 cytotoxicity (DAPI nuclear signal decrease) in the assay with DAPI (mean of runs) was > 25 µM (inactive); with DAPI (run 1), above 25 µM; with DAPI (run 2) it was above 25 µM. For the same compound, the IC50 in the assay with TAG (mean of runs) is > 25 µM (inactive); in the assay with TAG (run 1) it was above 25 µM; with TAG (run 2) it was above 25 µM.
Regarding `O=C(Nc1ccncc1)C1CCCN(S(=O)(=O)c2cccc3cccnc23)C1` (configuration not stated), the IC50 cytotoxicity (DAPI nuclear signal decrease) in the assay on DAPI (mean of runs) was > 25 µM (inactive); with DAPI (run 1), above 25 µM; in the assay with DAPI (run 2) it was above 25 µM. Also, the values for the IC50 in the assay on TAG (mean of runs), in the assay with TAG (run 1) and with TAG (run 2) were > 25 µM (inactive), above 25 µM and above 25 µM, respectively.
On to `CC(C)c1ccc(NC(=O)Nc2nc(C(N)C3CCCCC3)cs2)cc1` (configuration not stated), for which the IC50 cytotoxicity (DAPI nuclear signal decrease) in the assay with DAPI (mean of runs) is 17.3 µM (inactive); in the assay with DAPI (run 1) it was 16 µM; in the assay on DAPI (run 2), 18.6 µM. Further, the IC50 is 8.38 µM with TAG (mean of runs), 8.24 µM with TAG (run 1) and 8.53 µM with TAG (run 2).
As for `Clc1ccc(-c2csc(NNC3=NCCCCC3)n2)cc1`, the IC50 cytotoxicity (DAPI nuclear signal decrease) in the assay with DAPI (run 1) was 23.9 µM; with DAPI (run 2), above 25 µM. In addition, the IC50 in the assay on TAG (run 1) was below 0.78 µM; with TAG (run 2), 0.875 µM.
Take `CCOc1ccccc1-c1nc(-c2ccc(NC(=O)Cc3ccccc3OC)cc2)no1`: the results for the IC50 cytotoxicity (DAPI nuclear signal decrease) in the assay on DAPI (mean of runs), in the assay with DAPI (run 1) and in the assay with DAPI (run 2) were > 25 µM (inactive), above 25 µM and above 25 µM, respectively. Further, the IC50 is > 25 µM (inactive) in the assay on TAG (mean of runs), above 25 µM with TAG (run 1) and above 25 µM in the assay with TAG (run 2).
`COCCOC(=O)c1[nH]c2c(c1C)C(=O)CC(c1ccccc1)C2` (configuration not stated): the values for the IC50 cytotoxicity (DAPI nuclear signal decrease) with DAPI (mean of runs), in the assay with DAPI (run 1) and in the assay with DAPI (run 2) were > 25 µM (inactive), above 25 µM and above 25 µM, respectively. The IC50 was > 25 µM (inactive) in the assay on TAG (mean of runs), above 25 µM in the assay on TAG (run 1) and above 25 µM in the assay on TAG (run 2).
